# Key:
# Moisture sorption = type: physicochemical; conditions: between 5% to 95% relative humidity; lost on desorption
# [1] = Solid form stability on storage (XRPD); type: physicochemical; conditions: for XRPD pattern after storage: 40° C./75% RH
# Text: X-Ray Powder Diffraction patterns were collected on a Bruker AXS C2 GADDS diffractometer using Cu Kα radiation (40 kV, 40 mA), automated XYZ stage, laser video microscope for auto-sample positioning and a HiStar 2-dimensional area detector. X-ray optics consists of a single Gobel multilayer mirror coupled with a pinhole collimator of 0.3 mm. […] The beam divergence, i.e. the effective size of the X-ray beam on the sample, was approximately 4 mm. […] Typically the sample would be exposed to the X-ray beam for 120 seconds. The software used for data collection was GADDS for WNT 4.1.16 and the data were analyzed and presented using Diffrac Plus EVA v11.0.0.2 or v13.0.0.2. Alternatively, X-Ray Powder Diffraction patterns were collected on a Bruker D8 diffractometer using Cu Kα radiation (40 kV, 40 mA), θ-2θ goniometer, and divergence of V4 and receiving slits, a Ge monochromator and a Lynxeye detector. […] The software used for data collection was Diffrac Plus XRD Commander v2.5.0 and the data were analyzed and presented using Diffrac Plus EVA v11.0.0.2 or v13.0.0.2. Samples were run under ambient conditions as flat plate specimens using powder as received. The sample was gently packed into a cavity cut into polished, zero-background (510) silicon wafer. The sample was rotated in its own plane during analysis. The details of the data collection are: • Angular range: 2 to 42° 2θ • Step size: 0.05° 2θ • Collection time: 0.5 s/step • Analysis duration: 7 minutes Differential Scanning Calorimetry (DSC)
compound,measurement,setting,value
"Cc1nc(C(=O)NCC(=O)O)c(O)c2ccc(Oc3ccccc3)cc12 [Compound A Form A, [(4-hydroxy-1-methyl-7-phenoxy-isoquinoline-3-carbonyl)-amino]-acetic acid]",moisture sorption weight gain,Moisture sorption,approximately 0.2%
"Cc1nc(C(=O)NCC(=O)O)c(O)c2ccc(Oc3ccccc3)cc12.NCCO [Compound A ethanolamine salt, [(4-hydroxy-1-methyl-7-phenoxy-isoquinoline-3-carbonyl)-amino]-acetic acid ethanolamine salt]",XRPD pattern after storage,[1],Pattern 3 was observed
[(4-hydroxy-1-methyl-7-phenoxy-isoquinoline-3-carbonyl)-amino]-acetic acid diethanolamine salt [Compound A diethanolamine salt],XRPD pattern after storage,[1],Pattern 2 was observed
[(4-hydroxy-1-methyl-7-phenoxy-isoquinoline-3-carbonyl)-amino]-acetic acid hemihydrate [Compound A Form B],change of crystalline pattern on storage,[1]; 25° C./96% RH for twelve days,reverting to Form A
same,change of crystalline form on storage (high resolution XRPD),"[1]; ambient temperature, a full month (32 days)",almost completely reverted to anhydrous Form A
